Data taken from US20240101531A1, “PYRIDINAMINE DERIVATIVES AND THEIR USE AS POTASSIUM CHANNEL MODULATORS” (Xenon Pharmaceuticals Inc., priority 2022, published 2024).
Where a name gives a salt, the structure may show the parent alone.

Each compound was assayed against human KV7.2/KV7.3 (Homo sapiens (Human), UniProt O43525+O43526) (assay: Potassium flux assay (IPG-2 AM dye)). Conditions: TREX HEK 293 or HEK 293 cells expressing human KV7.2/KV7.3; arithmetic mean values.
Type: cell-based
How it was run: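 EC50 from 16 concentrations (2-fold dilutions, top 30 μM), scaled between DMSO baseline and a known KV7.x modulator maximum. Signal is IPG-2 AM fluorescence (ex 530/em 558 nm) after 10 mM KCl challenge buffer addition, following 20 min room-temperature compound exposure of HEK 293 or TREX HEK 293 cells stably expressing human KV7.2/KV7.3.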

EC50 [nM]	SMILES
1000 to 10000	Cc1ncc(Nc2nccc3cc(OCC4(C#N)COC4)ccc23)cn1 [Example 228, 3-(((1-((2-methylpyrimidin-5-yl)amino)isoquinolin-6-yl)oxy)methyl)oxetane-3-carbonitrile]
1000 to 10000	Fc1c(OCC2CC2)ccc2c(Nc3ccc(Cl)nc3)nccc12 [Example 229, N-(6-chloropyridin-3-yl)-6-(cyclopropylmethoxy)-5-fluoroisoquinolin-1-amine]
10000 to 30000	Clc1ccc(Nc2nccc3cc(NCC4CC4)ccc23)cn1 [Example 230, N^1-(6-chloropyridin-3-yl)-N^6-(cyclopropylmethyl)isoquinoline-1,6-diamine formate]
< 1000	FC(F)(F)C1(COc2ccc3c(Nc4ccc(Cl)nc4)nccc3c2)CC1 [Example 231, N-(6-chloropyridin-3-yl)-6-((1-(trifluoromethyl)cyclopropyl)methoxy)isoquinolin-1-amine formate]
1000 to 10000	Fc1c(NCC2CC2)ccc2c(Nc3ccc(Cl)nc3)nccc12 [Example 232, N^1-(6-chloropyridin-3-yl)-N^6-(cyclopropylmethyl)-5-fluoroisoquinoline-1,6-diamine]
10000 to 30000	Cc1ncc(Nc2nccc3c(F)c(OCC4CC4)ccc23)cn1 [Example 233, 6-(cyclopropylmethoxy)-5-fluoro-N-(2-methylpyrimidin-5-yl)isoquinolin-1-amine]
< 1000	N#CC1(COc2ccc3c(Nc4ccc(Cl)nc4)nccc3c2)CC(F)(F)C1 [Example 234, 1-(((1-((6-chloropyridin-3-yl)amino)isoquinolin-6-yl)oxy)methyl)-3,3-difluorocyclobutane-1-carbonitrile]
< 1000	Cc1ncc(Nc2nccc3cc(OCC4(C#N)CC(F)(F)C4)ccc23)cn1 [Example 235, 3,3-difluoro-1-(((1-((2-methylpyrimidin-5-yl)amino)isoquinolin-6-yl)oxy)methyl)cyclobutane-1-carbonitrile formate]
1000 to 10000	COCCOCCOc1ccc2c(Nc3ccc(Cl)nc3)nccc2c1 [Example 236, N-(6-chloropyridin-3-yl)-6-(2-(2-methoxyethoxy)ethoxy)isoquinolin-1-amine]
< 1000	C[C@H](Oc1ccc2c(Nc3ccc(Cl)nc3)nccc2c1)c1ccncc1 [Example 237, (S)—N-(6-chloropyridin-3-yl)-6-(1-(pyridin-4-yl)ethoxy)isoquinolin-1-amine]
< 1000	OCC1(COc2ccc3c(Nc4ccc(Cl)nc4)nccc3c2)CC1 [Example 238, (1-(((1-((6-chloropyridin-3-yl)amino)isoquinolin-6-yl)oxy)methyl)cyclopropyl)methanol]
< 1000	FC1(COc2ccc3c(Nc4ccc(Cl)nc4)nccc3c2)CCOCC1 [Example 239, N-(6-chloropyridin-3-yl)-6-((4-fluorotetrahydro-2H-pyran-4-yl)methoxy)isoquinolin-1-amine]
1000 to 10000	OC(COc1ccc2c(Nc3ccc(Cl)nc3)nccc2c1)C(F)(F)F (stereo not shown) [Example 240, 3-((1-((6-chloropyridin-3-yl)amino)isoquinolin-6-yl)oxy)-1,1,1-trifluoropropan-2-ol]
< 1000	Cc1ncc(Nc2nccc3cc(OCc4cnoc4)ccc23)cn1 [Example 241, 6-(isoxazol-4-ylmethoxy)-N-(2-methylpyrimidin-5-yl)isoquinolin-1-amine]
< 1000	Clc1ncc(Nc2nccc3cc(OCc4cnoc4)ccc23)cn1 [Example 242, N-(2-chloropyrimidin-5-yl)-6-(isoxazol-4-ylmethoxy)isoquinolin-1-amine]
10000 to 30000	Oc1ccc2c(Nc3cnc(Cl)nc3)nccc2c1 [Example 243, 1-((2-chloropyrimidin-5-yl)amino)isoquinolin-6-ol]

EC50 [nM]	SMILES
1000 to 10000	Cn1cc(CNc2ccc3c(Nc4ccc(Cl)nc4)nccc3c2)cn1 [Example 244, N′-(6-chloropyridin-3-yl)-N^6-((1-methyl-1H-pyrazol-4-yl)methyl)isoquinoline-1,6-diamine]
1000 to 10000	CC1(CNc2ccc3c(Nc4ccc(Cl)nc4)nccc3c2)COC1 [Example 245, N′-(6-chloropyridin-3-yl)-N^6-((3-methyloxetan-3-yl)methyl)isoquinoline-1,6-diamine]
1000 to 10000	CN(C)C(=O)/C=C/c1ccc2c(Nc3ccc(Cl)nc3)nccc2c1 [Example 246, (E)-3-(1-((6-chloropyridin-3-yl)amino)isoquinolin-6-yl)-N,N-dimethylacrylamide]
10000 to 30000	Fc1cc2c(Nc3ccc(Cl)nc3)nccc2cc1OCC1(F)CC1 [Example 247, N-(6-chloropyridin-3-yl)-7-fluoro-6-((1-fluorocyclopropyl)methoxy)isoquinolin-1-amine]
1000 to 10000	Clc1ccc(Nc2nccc3cc(CNc4cn[nH]c4)ccc23)cn1 [Example 248, 6-(((1H-pyrazol-4-yl)amino)methyl)-N-(6-chloropyridin-3-yl)isoquinolin-1-amine]
1000 to 10000	Cn1cc(OCc2ccc3c(Nc4ccc(Cl)nc4)nccc3c2)cn1 [Example 249, N-(6-chloropyridin-3-yl)-6-(((1-methyl-1H-pyrazol-4-yl)oxy)methyl)isoquinolin-1-amine]
< 1000	CN(Cc1ccc2c(Nc3ccc(Cl)nc3)nccc2c1)c1cn[nH]c1 [Example 250, N-(6-chloropyridin-3-yl)-6-((methyl(1H-pyrazol-4-yl)amino)methyl)isoquinolin-1-amine]
< 1000	Cn1cc(COc2cnc3c(Nc4ccc(Cl)nc4)nccc3c2)cn1 [Example 252, N-(6-chloropyridin-3-yl)-3-((1-methyl-1H-pyrazol-4-yl)methoxy)-1,7-naphthyridin-8-amine]
< 1000	Cn1cc(COc2cnc3c(Nc4cnc(Cl)nc4)nccc3c2)cn1 [Example 253, N-(2-chloropyrimidin-5-yl)-3-((1-methyl-1H-pyrazol-4-yl)methoxy)-1,7-naphthyridin-8-amine]
< 1000	N#CC1(COc2cnc3c(Nc4cnc(Cl)nc4)nccc3c2)CC1 [Example 254, 1-(((8-((2-chloropyrimidin-5-yl)amino)-1,7-naphthyridin-3-yl)oxy)methyl)cyclopropane-1-carbonitrile]
1000 to 10000	Clc1ccc(Nc2nccc3cc(OCC4CC4)cnc23)cn1 [Example 255, N-(6-chloropyridin-3-yl)-3-(cyclopropylmethoxy)-1,7-naphthyridin-8-amine]
1000 to 10000	Cc1ccc(Nc2nccc3cc(OCC4CC4)cnc23)cn1 [Example 256, 3-(cyclopropylmethoxy)-N-(6-methylpyridin-3-yl)-1,7-naphthyridin-8-amine]
1000 to 10000	Cc1ncc(Nc2nccc3cc(OCC4CC4)cnc23)cn1 [Example 257, 3-(cyclopropylmethoxy)-N-(2-methylpyrimidin-5-yl)-1,7-naphthyridin-8-amine]
1000 to 10000	Cc1ncc(Nc2nccc3cc(OCc4cnn(C)c4)cnc23)cn1 [Example 258, 3-((1-methyl-1H-pyrazol-4-yl)methoxy)-N-(2-methylpyrimidin-5-yl)-1,7-naphthyridin-8-amine]
1000 to 10000	CC1(COc2cnc3c(Nc4ccc(Cl)nc4)nccc3c2)COC1 [Example 259, N-(6-chloropyridin-3-yl)-3-((3-methyloxetan-3-yl)methoxy)-1,7-naphthyridin-8-amine]
